Biological target: T1, TDP1 (Homo sapiens, UniProt Q9NUW8)
T1 construct: made in house; host or cells: E. coli
Test: Real-time fluorescence detection of TDP1 activity, single-stranded FAM/BHQ biosensor
Type: biochemical
Settings: for Inhibitory effect on TDP1 activity (in words): single-stranded fluorescent biosensor, primary screening; for IC50: single-stranded fluorescent biosensor 50 nM, TDP1 1.5 nM, 26 °C, read-out: IC50 (half-maximal inhibitory concentration) of TDP1 activity; for Increase of efficiency of TDP1 inhibition by appending TBDPS at 5'-position: 37 compared to 36, 42 compared to 41, ratio of IC50
Procedure: Conditions and details for our real-time detection of TDP1 activity using the single-stranded and hairpin fluorescent biosensors were reported in our previous work[47]. Briefly, the approach consists in fluorescence intensity measurement of the reaction of quencher removal from the fluorophore-quencher coupled DNA-oligonucleotide catalysed by TDP1 in the presence of inhibitor and in the absence of it (the control samples contained 1% DMSO). Reaction mixtures (200 µl) contained TDP1 buffer (50 mM Tris-HCl, pH 8.0, 50 mM NaCl, 7 mM β-mercaptoethanol), oligonucleotide (50 nM substrate of TDP1), testable inhibitor and purified TDP1 (1.5 nM). The reactions were incubated at a constant temperature of 26 °C in a POLARstar OPTIMA fluorimeter, BMG LABTECH, GmbH, to measure fluorescence every 55 s (Ex485/Em520 nm) during the linear phase (here data from 0 to 8 min). The average values of half maximal inhibitory concentration (IC50) were determined using an eleven-point concentration response curve in three independent experiments and calculated using MARS Data Analysis 2.0 (BMG LABTECH).
To discover inhibitors of TDP1 we recently developed original single-stranded and hairpin fluorophore–quencher coupled DNA-biosensors for real-time measurement of TDP1 cleavage activity. The single-stranded substrate is a 16-mer oligonucleotide containing both 5′-FAM fluorophore donor and a quenching 3′-BHQ moiety (Figure 1(A)). When the quencher is removed by TDP1, the fluorescence intensity increases and can be measured by fluorimeter (TDP1 catalysed reaction on biosensor is shown in Figure 3(A). Fluorescence intensity declines in the presence of inhibitor, the resulting curves of the dependence of TDP1 residual activity as a function of the concentration of inhibitors were obtained using 4-parameter logistic regression fit, which was used to calculate IC50 values[47]^,[58].
For primary screening, the effect of a large group of disaccharide nucleosides and their hydrophobic derivatives on human recombinant TDP1 activity has been evaluated by fluorescent method on a single-stranded substrate described above.

T1 sequence (Q9NUW8 whole entry): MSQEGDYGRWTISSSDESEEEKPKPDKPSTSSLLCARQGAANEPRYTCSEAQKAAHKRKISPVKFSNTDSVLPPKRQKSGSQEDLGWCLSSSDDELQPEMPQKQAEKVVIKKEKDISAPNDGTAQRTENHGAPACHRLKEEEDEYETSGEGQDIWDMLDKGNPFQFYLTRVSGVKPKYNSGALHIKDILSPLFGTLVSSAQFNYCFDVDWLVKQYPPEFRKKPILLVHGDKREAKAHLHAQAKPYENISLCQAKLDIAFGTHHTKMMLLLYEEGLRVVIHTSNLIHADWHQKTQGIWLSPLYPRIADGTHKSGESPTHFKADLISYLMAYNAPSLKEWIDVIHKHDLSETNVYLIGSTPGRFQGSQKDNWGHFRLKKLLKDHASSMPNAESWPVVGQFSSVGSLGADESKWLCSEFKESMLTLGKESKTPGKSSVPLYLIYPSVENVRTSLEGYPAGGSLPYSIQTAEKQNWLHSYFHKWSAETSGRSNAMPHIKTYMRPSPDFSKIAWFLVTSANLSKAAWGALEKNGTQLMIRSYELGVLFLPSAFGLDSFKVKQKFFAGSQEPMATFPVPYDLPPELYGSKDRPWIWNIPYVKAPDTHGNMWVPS

`Nc1ncnc2c1ncn2[C@@H]1O[C@H](CO)[C@@H](O)[C@H]1O[C@@H]1O[C@H](CO)[C@@H](O)[C@H]1O` [Compound 1] was tested, and the “Inhibitory effect on TDP1 activity (in words)” value (“Inhibitory effect” below) was “not inhibited”.

In the case of `Cc1cn([C@@H]2O[C@H](CO)[C@@H](O)[C@H]2O[C@@H]2O[C@H](CO)[C@@H](O)[C@H]2O)c(=O)[nH]c1=O` [Compound 5], the “Inhibitory effect” value is reported as “not inhibited”.

For `Nc1nc2c(ncn2[C@@H]2O[C@H](CO)[C@@H](O)[C@H]2O[C@@H]2O[C@H](CO)[C@@H](O)[C@H]2O)c(=O)[nH]1` [Compound 8], the “Inhibitory effect” value was “not inhibited”.

With `Nc1ccn([C@@H]2O[C@H](CO)[C@@H](O)[C@H]2O[C@@H]2O[C@H](CO)[C@@H](O)[C@H]2O)c(=O)n1` [Compound 12] the “Inhibitory effect” value was “not inhibited”.

`O=C(Nc1ccn([C@@H]2O[C@H](CO)[C@@H](O)[C@H]2O[C@@H]2O[C@H](COC(=O)c3ccccc3)[C@@H](OC(=O)c3ccccc3)[C@H]2OC(=O)c2ccccc2)c(=O)n1)c1ccccc1` [Compound 13] gave an IC50 of 2600 ± 200 nM.

For `CC(C)[Si]1(C(C)C)OC[C@H]2O[C@@H](n3ccc(NC(=O)c4ccccc4)nc3=O)[C@H](O[C@@H]3O[C@H](COC(=O)c4ccccc4)[C@@H](OC(=O)c4ccccc4)[C@H]3OC(=O)c3ccccc3)[C@@H]2O[Si](C(C)C)(C(C)C)O1` [Compound 16], the IC50 was 400 ± 100 nM.

For `O=c1ccn([C@@H]2O[C@H](CO)[C@@H](O)[C@H]2O[C@@H]2O[C@H](CO)[C@@H](O)[C@H]2O)c(=O)[nH]1` [Compound 17], the “Inhibitory effect” value was “not inhibited”.

For `Nc1ncnc2c1ncn2[C@H]1C[C@H](O[C@@H]2O[C@H](CO)[C@@H](O)[C@H]2O)[C@@H](CO)O1` [Compound 22], the “Inhibitory effect” value was “not inhibited”.

With `Cc1cn([C@H]2C[C@H](O[C@@H]3O[C@H](COP(=O)([O-])[O-])[C@@H](O)[C@H]3O)[C@@H](CO)O2)c(=O)[nH]c1=O.[Na+].[Na+]` [Compound 25] the “Inhibitory effect” value was “does not lead to the noticeable inhibitory effect”.

With `Cc1cn([C@H]2C[C@H](O[C@@H]3O[C@H](CO)[C@@H](O)[C@H]3O)[C@@H](COP(=O)(O)O)O2)c(=O)[nH]c1=O.N.N` [Compound 26] the “Inhibitory effect” value was “does not lead to the noticeable inhibitory effect”.

`Cc1cn([C@H]2C[C@H](O[C@@H]3OC[C@@H](O)[C@@H](O)[C@H]3O)[C@@H](CO)O2)c(=O)[nH]c1=O` [Compound 27] was tested, and the “Inhibitory effect” value was “did not observe any inhibitory effect”.

With `CC(=O)O[C@H]1[C@H](O[C@H]2C[C@H](n3cc(C)c(=O)[nH]c3=O)O[C@@H]2CO)OC[C@@H](OC(C)=O)[C@H]1OC(C)=O` [Compound 28] the “Inhibitory effect” value was “did not observe any inhibitory effect”.

With `Cc1cn([C@@H]2C[C@H](O[C@@H](C=O)O[C@@H](C=O)CO)[C@@H](CO)O2)c(=O)[nH]c1=O` [Compound 30] the “Inhibitory effect” value was “did not lead to the noticeable inhibitory activity”.

`Cc1cn([C@H]2C[C@H](O[C@@H]3O[C@H](COC(=O)c4ccccc4)[C@@H](OC(=O)c4ccccc4)[C@H]3OC(=O)c3ccccc3)[C@@H](CO[C@@H]3O[C@H](COC(=O)c4ccccc4)[C@@H](OC(=O)c4ccccc4)[C@H]3OC(=O)c3ccccc3)O2)c(=O)[nH]c1=O` [Compound 33] was tested, and the IC50 was 1000 ± 100 nM.

With `Nc1nc2c(ncn2[C@H]2C[C@H](O[C@@H]3O[C@H](CO)[C@@H](O)[C@H]3O)[C@@H](CO)O2)c(=O)[nH]1` [Compound 34] the “Inhibitory effect” value was “not inhibited”.

For `Nc1ccn([C@H]2C[C@H](O[C@@H]3O[C@H](CO)[C@@H](O)[C@H]3O)[C@@H](CO)O2)c(=O)n1` [Compound 35], the “Inhibitory effect” value was “not inhibited”.

Molecule `O=C(Nc1ccn([C@H]2C[C@H](O[C@@H]3O[C@H](COC(=O)c4ccccc4)[C@@H](OC(=O)c4ccccc4)[C@H]3OC(=O)c3ccccc3)[C@@H](CO)O2)c(=O)n1)c1ccccc1` [Compound 36] has an IC50 of 1500 ± 200 nM.

With `CC(C)(C)[Si](OC[C@H]1O[C@@H](n2ccc(NC(=O)c3ccccc3)nc2=O)C[C@@H]1O[C@@H]1O[C@H](COC(=O)c2ccccc2)[C@@H](OC(=O)c2ccccc2)[C@H]1OC(=O)c1ccccc1)(c1ccccc1)c1ccccc1` [Compound 37] the “Increase of efficiency of TDP1 inhibition by appending TBDPS at 5'-position” value was “about 1.6 times” and the IC50 was 900 ± 100 nM.

`O=c1ccn([C@H]2C[C@H](O[C@@H]3O[C@H](CO)[C@@H](O)[C@H]3O)[C@@H](CO)O2)c(=O)[nH]1` [Compound 38] was tested, and the “Inhibitory effect” value was “not inhibited”.

`O=c1[nH]c(=O)n([C@H]2C[C@H](O[C@@H]3OC[C@@H](O)[C@@H](O)[C@H]3O)[C@@H](CO)O2)cc1I` [Compound 40] was tested, and the “Inhibitory effect” value was “did not observe any inhibitory effect”.

With `CC(C)(C)[Si](OC[C@H]1O[C@@H](n2cc(I)c(=O)[nH]c2=O)C[C@@H]1O[C@@H]1O[C@H](COC(=O)c2ccccc2)[C@@H](OC(=O)c2ccccc2)[C@H]1OC(=O)c1ccccc1)(c1ccccc1)c1ccccc1` [Compound 42] the “Increase of efficiency of TDP1 inhibition by appending TBDPS at 5'-position” value was “about 3.5 times” and the IC50 was 800 ± 100 nM.

For `Nc1ncnc2c1ncn2[C@H]1C[C@H](O)[C@@H](CO[C@@H]2O[C@H](CO)[C@@H](O)[C@H]2O)O1` [Compound 43], the “Inhibitory effect” value was “not inhibited”.

For `Cc1cn([C@H]2C[C@H](O)[C@@H](CO[C@@H]3O[C@H](CO)[C@@H](O)[C@H]3O)O2)c(=O)[nH]c1=O` [Compound 44], the “Inhibitory effect” value was “not inhibited”.

In the case of `Nc1nc2c(ncn2[C@H]2C[C@H](O)[C@@H](CO[C@@H]3O[C@H](CO)[C@@H](O)[C@H]3O)O2)c(=O)[nH]1` [Compound 45], the “Inhibitory effect” value is reported as “weak inhibitory effect”.

In the case of `Nc1ccn([C@H]2C[C@H](O)[C@@H](CO[C@@H]3O[C@H](CO)[C@@H](O)[C@H]3O)O2)c(=O)n1` [Compound 46], the “Inhibitory effect” value is reported as “not inhibited”.

For `O=c1ccn([C@H]2C[C@H](O)[C@@H](CO[C@@H]3O[C@H](CO)[C@@H](O)[C@H]3O)O2)c(=O)[nH]1` [Compound 47], the “Inhibitory effect” value was “weak inhibitory effect”.

Reference: PMC6136360, “Novel group of tyrosyl-DNA-phosphodiesterase 1 inhibitors based on disaccharide nucleosides as drug prototypes for anti-cancer therapy” (Journal of Enzyme Inhibition and Medicinal Chemistry, 2018)
